Measured values taken from PMC10571743, “Molecular Cloning, Tissue Distribution, and Pharmacological Characterization of GPR84 in Grass Carp (Ctenopharyngodon Idella)” (Animals : an Open Access Journal from MDPI, 2023).

How the values were obtained:
[1] = target: T1, ciGPR84 (Ctenopharyngodon idella, UniProt A0A8K1PH93); assay: pGL4.33 (SRE) luciferase reporter assay, activation of ERK signaling in HEK293T cells transfected with ciGPR84; type: cell-based, grass carp (Ctenopharyngodon idella); conditions: HEK293T co-transfected with ciGPR84 and pGL4.33 (SRE-luciferase), 6 h treatment; for EC50: read-out: EC50 for activation of ERK signaling through ciGPR84
Description: (§1) Human embryonic kidney cells HEK293T obtained from Beyotime Biotechnology (Shanghai, China) were cultured with Dulbecco’s Modified Eagle Medium (DMEM) containing a 10% fetal bovine serum in an incubator (37 °C and 5% CO2 humidified atmosphere). The cells were plated into 24-well plates and cultured for 24 h before assays. The Countess 3 cell counter (Invitrogen, Waltham, MA, USA) was used for cell counting.
(§2) The functionality of ciGPR84 was assessed using our established method. Specifically, the coding sequence (CDS) of ciGPR84 was subcloned into the pcDNA3.1 (+) vector (Invitrogen, Carlsbad, CA, USA), resulting in the construction of pcDNA3.1-ciGPR84 (pciGPR84). HEK293T cells were co-transfected with pciGPR84 (or pcDNA3.1 empty vector), two luciferase reporter vectors (pGL4.29 and pGL4.33) containing a cAMP response element (CRE) and serum response element (SRE), respectively, and pEGFP-N1 (as an internal control for transfection normalization) in a mixture with polyethyleneimine (PEI) transfection reagent (Fusheng Biotechnology, Shanghai, China). The cells were then incubated in the original medium for 24 h, transferred to a 48-well plate, and grown for an additional 24 h to reach a cell density of 2 × 10^5 cells per well. […] It is important to note that due to the anticipated inhibitory effect of MCFA on the intracellular cAMP, 5 μM forskolin was added to all wells transfected with pGL4.29 to pre-activate the cellular adenylyl cyclase.
(§3) After the treatment, cells were lysed with 1 × passive lysis buffer (Beyotime Biotechnology, Shanghai, China), and a luciferase substrate was added to initiate a glow-generating reaction. The luminescence signals were measured using a Tecan F200 (Tecan, Männedorf, Switzerland) microplate reader to determine the relative luciferase activity in each well. Three independent experiments were performed for each agonist concentration (n = 3), and the data were presented as a mean ± SEM.
(§4) A data analysis was performed using GraphPad Prism 7 software (GraphPad Software, San Diego, CA, USA).

[2] = target: T1, ciGPR84; assay: pGL4.29 (CRE) luciferase reporter assay, inhibition of forskolin-induced cAMP signaling in HEK293T cells transfected with ciGPR84; type: cell-based, grass carp (Ctenopharyngodon idella); conditions: HEK293T co-transfected with pciGPR84 and pGL4.29, 5 μM forskolin, 6 h treatment; for IC50: read-out: IC50 (half-maximal inhibitory concentration) on cAMP through ciGPR84
Description: as §1, §2, §3, §4

[3] = tested on: mouse GPR84; design: method as in PMID 16966319; conditions: cited from earlier work

T1 sequence (A0A8K1PH93 entry or part of it): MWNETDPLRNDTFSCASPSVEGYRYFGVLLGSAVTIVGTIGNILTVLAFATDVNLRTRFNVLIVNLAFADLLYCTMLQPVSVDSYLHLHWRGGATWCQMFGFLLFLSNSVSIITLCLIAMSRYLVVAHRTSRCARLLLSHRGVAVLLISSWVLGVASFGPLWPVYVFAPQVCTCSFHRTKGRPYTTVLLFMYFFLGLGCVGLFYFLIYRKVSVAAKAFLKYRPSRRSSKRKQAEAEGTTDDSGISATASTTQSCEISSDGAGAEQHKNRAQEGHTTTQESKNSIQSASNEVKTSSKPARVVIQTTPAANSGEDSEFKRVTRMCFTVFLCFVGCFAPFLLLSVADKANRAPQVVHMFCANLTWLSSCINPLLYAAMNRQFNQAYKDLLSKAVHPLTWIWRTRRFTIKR

activation of ERK signaling through ciGPR84 ([1]; DIM 10^−8 to 10^−3) | SMILES | inhibition of cAMP generation through ciGPR84 ([2]; DIM 10^−8 to 10^−3) | EC50 [3] [µM] | EC50 [1] [µM] | IC50 [2] [µM]
did not activate the ERK signaling | c1ccc2c(Cc3c[nH]c4ccccc34)c[nH]c2c1 [DIM, diindolylmethane] | did not lead to the inhibition of cAMP generation |  |  | 
 | CCCCCCCCCC(=O)O [capric acid] |  | 4 |  | 
 | CCCCCCCCCCCC(=O)O [lauric acid] |  | 9 | 4250 | 301
 | CCCCCCCCC(=O)O [nonanoic acid] |  | 52 |  | 
 | CCCCCCCCCCC(=O)O [undecanoic acid] |  |  | 13800 | 1490
